According to US11111237B2, “Bicyclic compound and use thereof” (SK BIOPHARMACEUTICALS CO., LTD., priority 2019, dated 2021):
Counter-ions that a name gives are not always drawn.

Target: PRMT5-MEP50 enzyme complex (Homo sapiens (Human), UniProt O14744)
Assay: PRMT5 enzyme activity in vitro assay (methylation of histone H4R3, ELISA absorbance at 450 nm)
Format: biochemical
Settings: SAM, histone H4 peptide, room temperature 2 hours, 8 points from 10 μM to 0.128 nM
Summary of the method: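 IC50 was derived from ELISA absorbance at 450 nm, using primary and HRP antibodies against H4R3 methylation on immobilised histone H4 peptide (residues 1-20). Compounds (10 μM to 0.128 nM, 8 points, 1:5) were incubated 2 h at room temperature with the PRMT5-MEP50 complex and SAM, diluted to 5 μg/mL and 2 μM respectively.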

Chain of PRMT5-MEP50 enzyme complex (O14744 2-637): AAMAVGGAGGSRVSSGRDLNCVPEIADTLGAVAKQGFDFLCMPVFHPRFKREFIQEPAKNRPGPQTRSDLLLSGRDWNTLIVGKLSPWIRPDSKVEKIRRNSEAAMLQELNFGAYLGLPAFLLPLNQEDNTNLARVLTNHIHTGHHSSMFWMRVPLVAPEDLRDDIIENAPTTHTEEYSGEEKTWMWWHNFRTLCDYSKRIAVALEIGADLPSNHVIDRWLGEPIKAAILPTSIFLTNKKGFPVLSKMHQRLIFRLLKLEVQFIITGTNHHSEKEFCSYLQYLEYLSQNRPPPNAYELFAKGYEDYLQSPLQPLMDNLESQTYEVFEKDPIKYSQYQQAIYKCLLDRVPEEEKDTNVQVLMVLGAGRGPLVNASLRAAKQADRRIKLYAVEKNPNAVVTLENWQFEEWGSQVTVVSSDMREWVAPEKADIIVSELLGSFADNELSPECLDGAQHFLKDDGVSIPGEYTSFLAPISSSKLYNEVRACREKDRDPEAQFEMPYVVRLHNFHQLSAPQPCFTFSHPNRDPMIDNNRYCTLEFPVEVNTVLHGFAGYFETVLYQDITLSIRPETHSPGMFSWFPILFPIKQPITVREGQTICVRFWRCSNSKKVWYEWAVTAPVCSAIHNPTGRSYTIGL
Chain of PRMT5-MEP50 enzyme complex (Q9BQA1 2-342 partner): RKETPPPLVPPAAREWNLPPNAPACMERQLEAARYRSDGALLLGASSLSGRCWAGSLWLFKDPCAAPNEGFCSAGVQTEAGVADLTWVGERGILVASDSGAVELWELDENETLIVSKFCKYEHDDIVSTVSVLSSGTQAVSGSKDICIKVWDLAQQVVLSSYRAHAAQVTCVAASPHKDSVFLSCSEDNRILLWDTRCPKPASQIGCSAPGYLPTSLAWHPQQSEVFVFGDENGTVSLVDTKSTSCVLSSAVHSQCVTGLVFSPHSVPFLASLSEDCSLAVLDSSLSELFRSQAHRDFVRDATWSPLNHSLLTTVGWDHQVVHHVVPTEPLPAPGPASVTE

Structure (SMILES)	IC50 [nM]
COC1CN(Cc2ccc3c(c2)OCCN(C[C@H](O)CN2CCc4ccccc4C2)C3=O)C1 [Example 29, 4-[(2R)-3-(3,4-dihydro-1H-isoquinolin-2-yl)-2-hydroxy-propyl]-8-[(3-methoxyazetidin-1-yl)methyl]-2,3-dihydro-1,4-benzoxazepin-5-one]	100 to 1000
CC(c1ccc2c(n1)OC(C)(C)CN(C[C@H](O)CN1CCc3ccccc3C1)C2=O)N1CC2(COC2)C1 (stereo partly drawn) [Example 247, 4-[(2R)-3-(3,4-dihydro-1H-isoquinolin-2-yl)-2-hydroxy-propyl]-2,2-dimethyl-8-[1-(2-oxa-6-azaspiro[3.3]heptan-6-yl)ethyl]-3H-pyrido[3,2-f][1,4]oxazepin-5-one]	100 to 1000
COCCN1CCC(Oc2ccc3c(c2)O[C@H](C)CN(C[C@H](O)CN2CCc4ccccc4C2)C3=O)CC1 [Example 224, (2R)-4-[(2R)-3-(3,4-dihydro-1H-isoquinolin-2-yl)-2-hydroxy-propyl]-8-[[1-(2-methoxyethyl)-4-piperidyl]oxy]-2-methyl-2,3-dihydro-1,4-benzoxazepin-5-one]	100 to 1000
CN1CCC(Oc2ccc3c(c2)OCCN(C[C@H](O)CN2CCc4ccccc4C2)C3=O)C(F)C1 (stereo partly drawn) [Example 206, 4-[(2R)-3-(3,4-dihydro-1H-isoquinolin-2-yl)-2-hydroxy-propyl]-8-[(3-fluoro-1-methyl-4-piperidyl)oxy]-2,3-dihydro-1,4-benzoxazepin-5-one]	100 to 1000
CC1(C)CN(C[C@H](O)CN2CCc3ccccc3C2)C(=O)c2ccc(CN3CCCCC3)nc2O1 [Example 197, 4-[(2R)-3-(3,4-dihydro-1H-isoquinolin-2-yl)-2-hydroxy-propyl]-2,2-dimethyl-8-(1-piperidylmethyl)-3H-pyrido[3,2-f][1,4]oxazepin-5-one]	100 to 1000
O=C1c2ccc(Oc3ncc(F)cn3)cc2OCCN1C[C@H](O)CN1CCc2ccccc2C1 [Example 211, 4-[(2R)-3-(3,4-dihydro-1H-isoquinolin-2-yl)-2-hydroxy-propyl]-8-(5-fluoropyrimidin-2-yl)oxy-2,3-dihydro-1,4-benzoxazepin-5-one]	100 to 1000
O=C1c2ccncc2OCCN1C[C@H](O)CN1CCc2ccccc2C1 [Example 152, 4-[(2R)-3-(3,4-dihydro-1H-isoquinolin-2-yl)-2-hydroxy-propyl]-2,3-dihydropyrido[4,3-f][1,4]oxazepin-5-one]	100 to 1000
C[C@@H]1CN(C[C@H](O)CN2CCc3ccccc3C2)C(=O)c2ccc(OC3CCN(CCO)CC3)cc2O1 [Example 219, (2R)-4-[(2R)-3-(3,4-dihydro-1H-isoquinolin-2-yl)-2-hydroxy-propyl]-8-[[1-(2-hydroxyethyl)-4-piperidyl]oxy]-2-methyl-2,3-dihydro-1,4-benzoxazepin-5-one]	1 to 100
C[C@@H]1CN(C[C@H](O)CN2CCc3ccccc3C2)C(=O)c2ccc(O[C@H]3CCN(C)C3)cc2O1 [Example 264, (2R)-4-[(2R)-3-(3,4-dihydro-1H-isoquinolin-2-yl)-2-hydroxy-propyl]-2-methyl-8-[(3S)-1-methylpyrrolidin-3-yl]oxy-2,3-dihydro-1,4-benzoxazepin-5-one]	100 to 1000
CC(=O)N1CCC(Oc2ccc3c(c2)OCCN(C[C@H](O)CN2CCc4ccccc4C2)C3=O)C1 (stereo partly drawn) [Example 80, 8-(1-acetylpyrrolidin-3-yl)oxy-4-[(2R)-3-(3,4-dihydro-1H-isoquinolin-2-yl)-2-hydroxy-propyl]-2,3-dihydro-1,4-benzoxazepin-5-one]	100 to 1000
CN1CCC(COc2ccc3c(c2)OCCN(C[C@H](O)CN2CCc4ccccc4C2)C3=O)CC1 [Example 102, 4-[(2R)-3-(3,4-dihydro-1H-isoquinolin-2-yl)-2-hydroxy-propyl]-8-[(1-methyl-4-piperidyl)methoxy]-2,3-dihydro-1,4-benzoxazepin-5-one]	100 to 1000
O=C1c2ccc(OC3CCN(CCF)CC3)cc2OCCN1C[C@H](O)CN1CCc2ccccc2C1 [Example 163, 4-[(2R)-3-(3,4-dihydro-1H-isoquinolin-2-yl)-2-hydroxy-propyl]-8-[[1-(2-fluoroethyl)-4-piperidyl]oxy]-2,3-dihydro-1,4-benzoxazepin-5-one]	100 to 1000
CC(=O)N1CC2(CC(Oc3ccc4c(c3)OCCN(C[C@H](O)CN3CCc5ccccc5C3)C4=O)C2)C1 [Example 174, 8-[(2-acetyl-2-azaspiro[3.3]heptan-6-yl)oxy]-4-[(2R)-3-(3,4-dihydro-1H-isoquinolin-2-yl)-2-hydroxy-propyl]-2,3-dihydro-1,4-benzoxazepin-5-one]	1 to 100
CC1CN(C(=O)c2ccc3c(c2)OCCN(C[C@H](O)CN2CCc4ccccc4C2)C3=O)CCO1 (stereo partly drawn) [Example 190, 4-[(2R)-3-(3,4-dihydro-1H-isoquinolin-2-yl)-2-hydroxy-propyl]-8-(2-methylmorpholin-4-carbonyl)-2,3-dihydro-1,4-benzoxazepin-5-one]	100 to 1000
CC(c1ccc2c(n1)OC(C)(C)CN(C[C@H](O)CN1CCc3ccccc3C1)C2=O)N1CCOCC1 (stereo partly drawn) [Example 246, 4-[(2R)-3-(3,4-dihydro-1H-isoquinolin-2-yl)-2-hydroxy-propyl]-2,2-dimethyl-8-(1-morpholinoethyl)-3H-pyrido[3,2-f][1,4]oxazepin-5-one]	100 to 1000
O=C(c1ccc2c(c1)OCCN(C[C@H](O)CN1CCc3ccccc3C1)C2=O)N1CCOC(F)(F)C1 [Example 195, 8-(2,2-difluoromorpholin-4-carbonyl)-4-[(2R)-3-(3,4-dihydro-1H-isoquinolin-2-yl)-2-hydroxy-propyl]-2,3-dihydro-1,4-benzoxazepin-5-one]	100 to 1000
O=C1c2ccc(OCc3ccnc(F)c3)cc2OCCN1C[C@H](O)CN1CCc2ccccc2C1 [Example 58, 4-[(2R)-3-(3,4-dihydro-1H-isoquinolin-2-yl)-2-hydroxy-propyl]-8-[(2-fluoro-4-pyridyl)methoxy]-2,3-dihydro-1,4-benzoxazepin-5-one]	1 to 100
O=C1c2ccc(OCC3CCCCC3)cc2OCCN1C[C@H](O)CN1CCc2ccccc2C1 [Example 66, 8-(cyclohexylmethoxy)-4-[(2R)-3-(3,4-dihydro-1H-isoquinolin-2-yl)-2-hydroxy-propyl]-2,3-dihydro-1,4-benzoxazepin-5-one]	100 to 1000
CN1CCN(C[C@H](O)CN2CCc3ccccc3C2)C(=O)c2ccc(CCC(F)(F)F)cc21 [Example 116, 4-[(2R)-3-(3,4-dihydro-1H-isoquinolin-2-yl)-2-hydroxy-propyl]-1-methyl-8-(3,3,3-trifluoropropyl)-2,3-dihydro-1,4-benzodiazepin-5-one]	100 to 1000
CN1CCC(Oc2ccc3c(c2)N(C)CCN(C[C@H](O)CN2CCc4ccccc4C2)C3=O)CC1 [Example 125, 4-[(2R)-3-(3,4-dihydro-1H-isoquinolin-2-yl)-2-hydroxy-propyl]-1-methyl-8-[(1-methyl-4-piperidyl)oxy]-2,3-dihydro-1,4-benzodiazepin-5-one]	100 to 1000
O=C1c2ccc(OC3CCN(CCF)CC3F)cc2OCCN1C[C@H](O)CN1CCc2ccccc2C1 (stereo partly drawn) [Example 207, 4-[(2R)-3-(3,4-dihydro-1H-isoquinolin-2-yl)-2-hydroxy-propyl]-8-[[3-fluoro-1-(2-fluoroethyl)-4-piperidyl]oxy]-2,3-dihydro-1,4-benzoxazepin-5-one]	100 to 1000
CN1CCC(Oc2cc(F)c3c(c2)OCCN(C[C@H](O)CN2CCc4ccccc4C2)C3=O)CC1 [Example 109, 4-[(2R)-3-(3,4-dihydro-1H-isoquinolin-2-yl)-2-hydroxy-propyl]-6-fluoro-8-[(1-methyl-4-piperidyl)oxy]-2,3-dihydro-1,4-benzoxazepin-5-one]	100 to 1000
CC(=O)N1CC[C@H](Oc2ccc3c(c2)OCCN(C[C@H](O)CN2CCc4ccccc4C2)C3=O)C1 [Example 82, 8-[(3S)-1-acetylpyrrolidin-3-yl]oxy-4-[(2R)-3-(3,4-dihydro-1H-isoquinolin-2-yl)-2-hydroxy-propyl]-2,3-dihydro-1,4-benzoxazepin-5-one]	100 to 1000
O=C1CCC(Oc2ccc3c(c2)OCCN(C[C@H](O)CN2CCc4ccccc4C2)C3=O)CN1 (stereo partly drawn) [Example 76, 4-[(2R)-3-(3,4-dihydro-1H-isoquinolin-2-yl)-2-hydroxy-propyl]-8-[(6-oxo-3-piperidyl)oxy]-2,3-dihydro-1,4-benzoxazepin-5-one]	100 to 1000
CC(=O)N1CC[C@@H](Oc2ccc3c(c2)N(C)CCN(C[C@H](O)CN2CCc4ccccc4C2)C3=O)C1 [Example 123, 8-[(3R)-1-acetylpyrrolidin-3-yl]oxy-4-[(2R)-3-(3,4-dihydro-1H-isoquinolin-2-yl)-2-hydroxy-propyl]-1-methyl-2,3-dihydro-1,4-benzodiazepin-5-one]	100 to 1000
O=C1c2ccc(F)cc2OCCN1C[C@H](O)CN1CCc2ccccc2C1 [Example 150, 4-[(2R)-3-(3,4-dihydro-1H-isoquinolin-2-yl)-2-hydroxy-propyl]-8-fluoro-2,3-dihydro-1,4-benzoxazepin-5-one]	100 to 1000
C[C@@H]1CN(C[C@H](O)CN2CCc3ccccc3C2)C(=O)c2ccc(OC3CCN(CCO)C[C@H]3F)cc2O1 (stereo partly drawn) [Example 255, (2R)-4-[(2R)-3-[(2R)-3-(3,4-dihydro-1H-isoquinolin-2-yl)-2-hydroxy-propyl]-8-[[(3R,4R)-3-fluoro-1-(2-hydroxyethyl)-4-piperidyl]oxy]-2-methyl-2,3-dihydro-1,4-benzoxazepin-5-one dihydrochloride]	100 to 1000
O=C1c2ccc(CN3CCC(F)(F)CC3)cc2OCCN1C[C@H](O)CN1CCc2ccccc2C1 [Example 31, 8-[(4,4-difluoro-1-piperidyl)methyl]-4-[(2R)-3-(3,4-dihydro-1H-isoquinolin-2-yl)-2-hydroxy-propyl]-2,3-dihydro-1,4-benzoxazepin-5-one]	1 to 100
CC(=O)N1CC(Oc2ccc3c(c2)N(C)CCN(C[C@H](O)CN2CCc4ccccc4C2)C3=O)C1 [Example 122, 8-(1-acetylazetidin-3-yl)oxy-4-[(2R)-3-(3,4-dihydro-1H-isoquinolin-2-yl)-2-hydroxy-propyl]-1-methyl-2,3-dihydro-1,4-benzodiazepin-5-one]	100 to 1000
